Data reported in patent publication US8946142B2, “Beta-arrestin effectors and compositions and methods of use thereof” (Trevena, Inc., priority 2012, dated 2015).
Where a SMILES comes first, the peptide text is derived from it. [ ]: non-standard residue; d: D form. Ac6c = NC1(C(=O)O)CCCCC1; Aib = CC(C)(N)C(=O)O; Sar = CNCC(=O)O

What was measured:
Type in all cases: cell-based
human AT1R [1] = target: T1, human AT1R (Homo sapiens, UniProt P30556); assay: beta-arrestin2 recruitment assay (PathHunter), human AT1R; conditions: for Emax: 1 h, read-out: Span (relative to hAngII)
T1 sequence (P30556 1-359): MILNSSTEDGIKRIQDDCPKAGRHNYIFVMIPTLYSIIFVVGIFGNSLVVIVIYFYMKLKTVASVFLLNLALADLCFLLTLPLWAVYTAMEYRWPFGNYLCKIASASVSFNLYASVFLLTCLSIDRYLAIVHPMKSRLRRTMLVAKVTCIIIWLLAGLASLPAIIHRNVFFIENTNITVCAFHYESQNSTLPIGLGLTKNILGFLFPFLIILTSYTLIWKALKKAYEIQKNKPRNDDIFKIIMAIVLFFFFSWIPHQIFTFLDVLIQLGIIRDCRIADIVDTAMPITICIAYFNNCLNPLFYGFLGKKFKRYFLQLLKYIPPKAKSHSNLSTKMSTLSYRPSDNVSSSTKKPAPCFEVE
Method: (§1) The proximal event in β-arrestin function mediated by GPCRs is recruitment to receptors following ligand binding and receptor phosphorylation by GRK's. Thus, the measure of β-arrestin recruitment was used to determine ligand efficacy for β-arrestin function.
(§2) B-arrestin-2 recruitment to the human and rat angiotensin 2 type 1 receptor (human AT1R and rat AT1aR, respectively) was measured with the PathHunter™ μl-arrestin assay (DiscoveRx Corporation, Fremont Calif.). Cells, plasmid(s), and detection reagent(s) were purchased from DiscoveRx, and assays were performed per manufacturer's instructions. Human AT1R and rat AT1aR were cloned into the pCMV-ProLink vector, verified by sequencing, and transfected into PathHunter β-arrestin HEK293 cells. Stably transfected clonal cell lines were selected with Hygromycin and G418. These clonal cell lines were used for all experiments.
(§3) For assays, 4,000-8,000 cells were seeded per well in 384-well microplates “HiBase” small-volume plate in volumes of 20 uL and grown overnight in the incubator (37° C., 5% CO2, saturated humidity). Peptides were dissolved in DMSO to a concentration of 10 mM. Peptides were then further diluted in assay buffer (Hank's balanced salt solution with 20 mM HEPES) to add peptide to the cells to reach final concentrations ranging from 100 μM to 1 pM. Cells were then incubated for 60 minutes at 37° C. in 5% CO2, followed by addition of 2 μL of PathHunter Detection Reagent to each well. The microplates were then incubated at room temperature for 60 minutes, and then luminescence was measured using a PHERAstar Plus microplate reader from BMG Labtech. B-arrestin-2 recruitment to receptors was measured as relative luminescence intensity expressed in arbitrary units.

human AT1R [2] = target: T1, human AT1R; assay: IP1 accumulation assay (IP1 G-protein assay), human AT1R; conditions: for Emax: read-out: Span (relative to hAngII)
Method: (§4) A secondary measure of G protein coupling efficacy was also performed. IP3 is generated by activation of phospholipase C by Gα-q. IP3 is degraded to IP1, which can be forced to accumulate in cells by blocking degradation with lithium chloride. Thus we measured accumulation of IP1 to determine ligand efficacy for G protein activation.
(§5) IP1 accumulation generated by human and rat angiotensin 2 type 1 receptor (human AT1R and rat AT1aR, respectively) was measured with IP-One Tb kits purchased from Cisbio and used per the manufacturer's instructions. Clonal stably transfected cell lines expressing human AT1TR or rat AT1aR were used for all experiments.
(§6) For assays, 4,000-8,000 cells were seeded per well in 384-well small-volume microplates “HiBase” small-volume plate in volumes of 20 uL and allowed to grow overnight at 37° C. in 5% CO2. Cell growth media was then replaced with stimulation buffer supplied by Cisbio containing 50 mM lithium chloride. […] For agonist detection, peptides were then further diluted in stimulation buffer to add peptide to the cells to reach final concentrations ranging from 100 uM to 1 pM. Following addition of peptides, cells were incubated at 37° C. in 5% CO2 for 30 minutes and then lysed with 4 uL of pre-mixed HTRF IP-One reagents diluted per manufacturer's instructions (Cisbio). Microplates were incubated for 60-90 minutes at room temperature and then time-resolved fluorescence intensities were measured using a PHERAstar Plus microplate reader from BMG Labtech. IP1 accumulation was measured as change in ratio of time-resolved fluorescent intensities measured at 665 nm and 620 nm.

rat AT1aR [3] = target: T2, rat AT1aR (Rattus norvegicus, UniProt P25095); assay: beta-arrestin2 recruitment assay (PathHunter), rat AT1aR; conditions: for Emax: 1 h, read-out: Span (relative to hAngII)
T2 sequence (P25095 1-359): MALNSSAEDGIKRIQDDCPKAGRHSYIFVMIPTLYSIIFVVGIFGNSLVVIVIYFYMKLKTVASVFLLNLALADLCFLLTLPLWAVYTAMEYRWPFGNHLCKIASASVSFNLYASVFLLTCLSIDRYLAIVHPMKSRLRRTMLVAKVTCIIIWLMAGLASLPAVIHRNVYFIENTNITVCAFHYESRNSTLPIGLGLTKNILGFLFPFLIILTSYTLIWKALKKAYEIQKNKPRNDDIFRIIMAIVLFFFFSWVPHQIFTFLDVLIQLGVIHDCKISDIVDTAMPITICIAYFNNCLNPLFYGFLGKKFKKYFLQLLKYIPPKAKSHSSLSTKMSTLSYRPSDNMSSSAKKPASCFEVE
Method: as §1, §2, §3

rat AT1aR [4] = target: T2, rat AT1aR; assay: IP1 accumulation assay (IP1 G-protein assay), rat AT1aR; conditions: for Emax: read-out: Span (relative to hAngII)
Method: as §4, §5, §6

Row | Compound | Emax (human AT1R [1]) | EC50 (human AT1R [1]; read-out: EC50) | EC50 (human AT1R [1]; read-out: pEC50 (converted)) | EC50 (human AT1R [2]; read-out: EC50) | Emax (human AT1R [2]) | EC50 (human AT1R [2]; read-out: pEC50 (converted)) | Emax (rat AT1aR [3]) | EC50 (rat AT1aR [3]; read-out: EC50) | EC50 (rat AT1aR [3]; read-out: pEC50 (converted)) | EC50 (nM) (rat AT1aR [3]) | pEC50 (rat AT1aR [3]) | Emax (rat AT1aR [4]) | EC50 (rat AT1aR [4]; read-out: EC50) | EC50 (rat AT1aR [4]; read-out: pEC50 (converted))
1 | CNCC(=O)N[C@@H](CCCNC(=N)N)C(=O)N[C@H](C(=O)N[C@@H](Cc1ccc(O)cc1)C(=O)NC1(C(=O)N[C@@H](Cc2c[nH]cn2)C(=O)N2CCC[C@H]2C(=O)N[C@@H](CCCNC(=N)N)C(=O)O)CCCCC1)C(C)C [SEQ ID NO: 42, Sar-Arg-Val-Tyr-cyHex-His-Pro-Arg] (H-[Sar]RVY[Ac6c]HPR-OH) | < 101% | > 3.2 nM | > 3.16 nM | > 1.3 nM | < 103% | > 0.631 nM | < 105% | > 3.2 nM | > 3.16 nM | – | – | – | – | –
2 | CNCC(=O)N[C@@H](CCSC)C(=O)N[C@H](C(=O)N[C@@H](Cc1ccc(O)cc1)C(=O)NC1(C(=O)N[C@@H](Cc2c[nH]cn2)C(=O)N2CCC[C@H]2C(=O)N[C@@H](C)C(=O)O)CCCCC1)C(C)C [SEQ ID NO: 45, Sar-Met-Val-Tyr-cyHex-His-Pro-Ala] (H-[Sar]MVY[Ac6c]HPA-OH; N-terminus and C-terminus assumed) | < 101% | – | – | – | < 103% | – | < 105% | – | – | – | – | – | – | –
3 | CNCC(=O)N[C@@H](CCCNC(=N)N)C(=O)N[C@H](C(=O)N[C@@H](Cc1ccc(O)cc1)C(=O)NC(C)(C)C(=O)N[C@@H](Cc1c[nH]cn1)C(=O)N1CCC[C@H]1C(=O)N[C@H](C(=O)O)C(C)C)C(C)C [SEQ ID NO: 33, Sar-Arg-Val-Tyr-AA01-His-Pro-Val] (H-[Sar]RVY[Aib]HPV-OH) | < 101% | > 3.2 nM | > 3.16 nM | > 1.3 nM | < 103% | > 0.631 nM | < 105% | > 3.2 nM | > 3.16 nM | – | – | – | – | –
4 | CCCCc1nc(Cl)c(CO)n1Cc1ccc(-c2ccccc2-c2nn[nH]n2)cc1 [losartan, reference compound] | – | – | – | – | – | – | – | – | – | Inactive | Inactive | < 104% | – | –
5 | CNCC(=O)N[C@@H](CCCNC(=N)N)C(=O)N[C@H](C(=O)N[C@@H](Cc1ccc(O)cc1)C(=O)NC1(C(=O)N[C@@H](Cc2c[nH]cn2)C(=O)N2CCC[C@H]2C(=O)N[C@@H](CC(=O)O)C(=O)O)CCCCC1)C(C)C [SEQ ID NO: 44, Sar-Arg-Val-Tyr-cyHex-His-Pro-Asp] (H-[Sar]RVY[Ac6c]HPD-OH) | < 101% | > 3.2 nM | > 3.16 nM | – | – | – | < 105% | > 3.2 nM | > 3.16 nM | – | – | < 104% | > 0.6 nM | > 0.631 nM
6 | CNCC(=O)N[C@@H](CCCCN)C(=O)N[C@H](C(=O)N[C@@H](Cc1ccc(O)cc1)C(=O)NC1(C(=O)N[C@@H](Cc2c[nH]cn2)C(=O)N2CCC[C@H]2C(=O)N[C@@H](C)C(=O)O)CCCCC1)C(C)C [SEQ ID NO: 51, Sar-Lys-Val-Tyr-cyHex-His-Pro-Ala] (H-[Sar]KVY[Ac6c]HPA-OH) | < 101% | > 3.2 nM | > 3.16 nM | > 1.3 nM | < 103% | > 0.631 nM | < 105% | > 3.2 nM | > 3.16 nM | – | – | – | – | –
